Assays:
Assay type in all cases: in vivo, C57BL/6 mice
[1] = test system: antigen-specific CD4 T cells; test: CD4 T cell response by intracellular cytokine staining of blood; conditions: LP delivered as SNP-7/8a; × = immunogenic
[2] = test system: antigen-specific CD8 T cells; test: CD8 T cell response by intracellular cytokine staining of blood; conditions: LP delivered as SNP-7/8a; × = immunogenic; listed as M07
B16-F10 tumor cells = test: B16-F10 therapeutic tumor model; conditions: B16-F10 SC implanted

“TAKSVMCTYSPPLDKLFCQLAKTCPVQ [Compound B16-M07]” was tested. Which “CD4 response, present study, SNP-7/8a” value [1] did it give?
The value was “no significant CD4 T cell response”.

What about the “CD8 response, present study, SNP-7/8a” value [2] of the same sequence?
The value was “induced a CD8 T cell response”.

What about the “Tumor control, neoantigen as SNP-7/8a by IV route” value (B16-F10 tumor cells; with anti-PD-L1 IP) of the same sequence?
The value was “improved control of tumor growth”.

“ELINFKRKRVAAFQKNLIEMSELEIKH [Compound B16-M39]” was tested. Which “Tumor control, neoantigen as LP + polyIC by SC route” value (B16-F10 tumor cells; days 1, 8 and 15 with anti-PD-L1 IP) did it give?
Its value is “no efficacy observed”.
